Measured values reported in patent US20030187240A1, “2' -modified oligonucleotides” (ISIS Pharmaceuticals, Inc., priority 1990, published 2003).
“Also recorded” adds a separate entry of the source. Strand notation (5' to 3'): a small letter for the sugar, then the base; units joined by * are phosphorothioate-linked, units joined directly phosphodiester-linked; [ ] holds rarer units or linkages, { } end groups; capitals alone tell only the bases. [OPr] = 2'-O-propyl nucleotide; [OPent] = 2'-O-pentyl nucleotide; d = 2'-deoxy (DNA); m = 2'-O-methyl; f = 2'-fluoro

Legend:
PKC-α mRNA = PKC-α mRNA levels by Northern blot analysis; assay type: cell-based, human; details: FIGS. 3, 4 and 5; result in words
Procedure: Oligonucleotides having SEQ ID NO: 4 were synthesized as uniformly phosphorothioate chimeric oligonucleotides having a centered deoxy gap of varying lengths flanked by 2′-O-methylated regions. These oligonucleotides (500 nM concentration) were tested for effects on PKC-α mRNA levels by Northern blot analysis.

[1] = tested on: crude HeLa cellular extracts
[2] = tested on: 25 mer oligoribonucleotide complement; experiment: Melting curves of 2′-modified 17-mers with 7-deoxy gap; assay type: binding; details: 17-mer with 7-deoxy gap hybridized with 25 mer oligoribonucleotide complement
Text: This is attributed to these phosphodiester compounds being substrates for nucleases that degrade such phosphodiester compounds thus preventing them potentially activating RNase H. Other sugar modifications: The effects of other 2′ sugar modifications besides 2′-O-methyl on antisense activity in chimeric oligonucleotides have been examined. These modifications are listed in Table 4, along with the Tm values obtained when 17 mer oligonucleotides having 2′-modified nucleotides flanking a 7-base deoxy gap were hybridized with a 25 mer oligoribonucleotide complement as described in Example 25. […] As alkyl length increased, Tm decreased.
Absorbance vs. temperature curves were measured at 260 nm using a Gilford 260 spectrophotometer interfaced to an IBM PC computer and a Gilford Response II spectrophotometer. The buffer contained 100 mM Na^+, 10 mM phosphate and 0.1 mM EDTA, pH 7. Oligonucleotide concentration was 4 μM each strand determined from the absorbance at 85° C. and extinction coefficients calculated according to Puglisi and Tinoco [Methods in Enzymol., 180, 304 (1989). Tm values, free energies of duplex formation and association constants were obtained from fits of data to a two state model with linear sloping baselines. [Petersheim and Turner, Biochemistry, 22, 256 (1983). Reported parameters are averages of at least three experiments. For some oligonucleotides, free energies of duplex formation were also obtained from plots of Tm^−1 vs log10 (concentration). Borer et al., J. Mol. Biol., 86, 843 (1974).

H-ras = experiment: ras transactivation reporter gene assay; assay type: cell-based; details: for IC50: antisense activity against H-ras, 17-mer with 7-deoxy gap
Text: The expression plasmid pSV2-oli, containing an activated (codon 12, GGC→GTC) H-ras cDNA insert under control of the constitutive SV40 promoter, was a gift from Dr. Bruno Tocque (Rhone-Poulenc Sante, Vitry, France). This plasmid was used as a template to construct, by PCR, a H-ras expression plasmid under regulation of the steroid-inducible mouse mammary tumor virus (MMTV) promoter. To obtain H-ras coding sequences, the 570 bp coding region of the H-ras gene was amplified by PCR. The PCR primers were designed with unique restriction endonuclease sites in their 5′-regions to facilitate cloning. The PCR product containing the coding region of the H-ras codon 12 mutant oncogene was gel purified, digested, and gel purified once again prior to cloning. This construction was completed by cloning the insert into the expression plasmid pMAMneo (Clontech Laboratories, Calif.).
The ras-responsive reporter gene pRD053 was used to detect ras expression. [Owen et al., Proc. Natl. Acad. Sci. U.S.A., 87, 3866 (1990).

ras mRNA = experiment: Northern blot analysis of ras expression in T24 cells; assay type: cell-based, human; details: result in words
Procedure: The human urinary bladder cancer cell line T24 was obtained from the American Type Culture Collection (Rockville Md.). Cells were grown in McCoy's 5A medium with L-glutamine (GIBCO-BRL, Gaithersburg, Md.), supplemented with 10% heat-inactivated fetal calf serum and 50 U/ml each of penicillin and streptomycin. Cells were seeded on 100 mm plates. When they reached 70% confluency, they were treated with oligonucleotide. Plates were washed with 10 ml prewarmed PBS and 5 ml of OptiMEM (GIBCO) reduced-serum medium containing 2.5 μl DOTMA. Oligonucleotide was then added to the desired concentration. After 4 hours of treatment, the medium was replaced with McCoy's medium. Cells were harvested 48 hours after oligonucleotide treatment and RNA was isolated using a standard CsCl purification method. [Kingston in Current Protocols in Molecular Biology, F. M. Ausubel, R. Brent, R. E. Kingston, D. D. Moore, J. A. Smith, J. G. Seidman and K. Strahl, Eds., John Wiley and Sons, New York.] The human epithelioid carcinoma cell line HeLa 229 was obtained from the American Type Culture Collection (Bethesda, Md.). HeLa cells were maintained as monolayers on 6-well plates in Dulbecco's Modified Eagle's medium (DMEM) supplemented with 10 fetal bovine serum and 100 U/ml penicillin. Treatment with oligonucleotide and isolation of RNA were essentially as described above for T24 cells.
Northern hybridization: 10 μg of each RNA was electrophoresed on a 1.2% agarose/formaldehyde gel and transferred overnight to GeneBind 45 nylon membrane (Pharmacia LKB, Piscataway, N.J.) using standard methods. [Kingston in Current Protocols in Molecular Biology, F. M. Ausubel, R. Brent, R. E. Kingston, D. D. Moore, J. A. Smith, J. G. Seidman and K. Strahl, Eds., John Wiley and Sons, New York.] RNA was UV-crosslinked to the membrane. Double-stranded ^32P-labeled probes were synthesized using the Prime a Gene labeling kit (Promega, Madison Wis.). The ras probe was a SalI-NheI fragment of a cDNA clone of the activated (mutant) H-ras mRNA having a GGC-to-GTC mutation at codon-12. The control probe was G3PDH. Blots were prehybridized for 15 minutes at 68° C. with the QuickHyb hybridization solution (Stratagene, La Jolla, Calif.). The heat-denatured radioactive probe (2.5×10^6 counts/2 ml hybridization solution) mixed with 100 μl of 10 mg/ml salmon sperm DNA was added and the membrane was hybridized for 1 hour at 68° C. The blots were washed twice for 15 minutes at room temperature in 2×SSC/0.1% SDS and once for 30 minutes at 60° C. with 0.1×SSC/0.1%SDS. Blots were autoradiographed and the intensity of signal was quantitated using an ImageQuant PhosphorImager (Molecular Dynamics, Sunnyvale, Calif.). Northern blots were first hybridized with the ras probe, then stripped by boiling for 15 minutes in 0.1×SSC/0.1%SDS and rehybridized with the control G3PDH probe to check for correct sample loading.

[3] = tested on: codon-12 point mutation of mutant (activated) H-ras RNA; assay type: cell-based, human

3522 (AsAsAsAsCsGsTsCsAsGsCsCsAsTsGsGsTsCsCsC; 2'-O-methyl/deoxy chimeric, phosphorothioate, as printed in the source, key not given here) [Oligonucleotide 3522]
effect on PKC-α mRNA levels (PKC-α mRNA): show reduction of PKC-α mRNA

CsCsAsCsAsCsCoGoAoCoGoGsCsGsCsCsC [Oligonucleotide 4606]
T½ [1]: 1.75 h

C^FC^FA^F C^FA^FCd CdGdAd CdGdGd C^FG^FC^F C^FC^F [Oligonucleotide 4690]
Tm (° C.) ([2]; listed as 2′-fluoro chimeric oligonucleotide): highest Tm of the series
Tm (° C.) ([2]; listed as Fluoro): 7 °C
antisense activity against H-ras (inhibition of ras expression) (H-ras): most active
IC50 (H-ras): 10 nM

C^MC^MA^M C^MA^MCd CdGdAd CdGdGd C^MG^MC^M C^MC^M [Oligonucleotide 3985]
Tm (° C.) [2]: 7 °C
IC50 (H-ras): 20 nM
inhibition of ras expression in T24 cells (ras mRNA): inhibited

CsCsAsCsAsCsCoGoAoCoGsGsCsGsCsCsC [Oligonucleotide 4593]
T½ [1]: ~3.2 h

6653 (TTCTCGCTGGTGAGTTTC; antisense; sugars from the 5' end [OPr]3 d11 [OPr]4, all phosphorothioate, methylation of C not given here) [Oligonucleotide 6653]
effect on PKC-α mRNA levels (PKC-α mRNA): most active in reducing PKC-α mRNA levels

7294 (AAAACGTCAGCCATGGTCCC; sugars from the 5' end [OPr]6 d14, linkages s1 o4 s9 o4 s1 (s phosphorothioate, o phosphodiester), methylation of C not given here) [Oligonucleotide 7294]
effect on PKC-α mRNA levels (PKC-α mRNA): more active than their 2′-O-methyl counterparts at lowering PKC-α mRNA levels

O-Propyl: 17-mer CCACACCGACGGCGCCC with 2′-O-propyl nucleotides flanking a 7-base deoxy gap (sugars from the 5' end [OPr]5 d7 [OPr]5, backbone and methylation of C not given here)
Tm (° C.) [2]: 7 °C
IC50 (H-ras): 70 nM
inhibition of ras expression in T24 cells (ras mRNA): inhibited

7008 (mA*mAmAmAmCdG*dT*dC*dA*dG*dC*dC*dA*dT*dGdGdTdCdC*dC) [Oligonucleotide 7008]
effect on PKC-α mRNA levels (PKC-α mRNA): show reduction of PKC-α mRNA

7273 (AAAACGTCAGCCATGGTCCC; 2'-O-propyl/deoxy, mixed P=S/P=O backbone, chemistry not fully specified) [Oligonucleotide 7273]
effect on PKC-α mRNA levels (PKC-α mRNA): more active than their 2′-O-methyl counterparts at lowering PKC-α mRNA levels

4233 (CCACACCGACGGCGCCC; 2'-O-methyl wings, mixed phosphorothioate/phosphodiester, pattern not given here) [Oligonucleotide 4233]
T½ [1]: 7 h

CsCsAsCsAsCsCsGoAoCoGsGsCsGsCsCsC [Oligonucleotide 4551]
T½ [1]: ~3.75 h

Oligonucleotide 4689: SEQ ID NO: 1, 2′-fluoro-modified nucleotides flanking a 5-deoxy gap (CCACACCGACGGCGCCC; sugars from the 5' end f6 d5 f6, backbone and methylation of C not given here)
antisense activity against H-ras (inhibition of ras expression) (H-ras): also active

CsCsAsCoAoCoCoGoAoCoGoGoCoGsCsCsC [Oligonucleotide 4241]
effect on ras expression (ras-luciferase reporter system), chimeric backbone-modified oligonucleotides [3]: completely inactive
T½ [1]: 0.9 h

4248 (CCACACCGACGGCGCCC; 2'-O-methyl wings, mixed phosphorothioate/phosphodiester, pattern not given here) [Oligonucleotide 4248]
degradation in HeLa cell extract [1]: no degradation after 5 hours

5352 (AAAACGTCAGCCATGGTCCC; sugars from the 5' end m6 d6 m8, all phosphorothioate, methylation of C and T or U not given here) [Oligonucleotide 5352]
effect on PKC-α mRNA levels (PKC-α mRNA): show reduction of PKC-α mRNA; also recorded: most active

6632 (dT*dT*dC*dT*dC*dG*dC*dT*dG*dG*dT*dG*dA*dG*dT*dT*dT*dC; antisense) [Oligonucleotide 6632]
effect on PKC-α mRNA levels (PKC-α mRNA): most active in reducing PKC-α mRNA levels

CsCsAsCsAsCsCsGoAoCsGsGsCsGsCsCsC [Oligonucleotide 4546]
T½ [1]: approximately 5.5 hours

7082 (dT*dC*dT*dC*dG*dC*dT*dG*dG*dT*dG*dA*dG*dT*dT*dT*dC; antisense) [Oligonucleotide 7082]
effect on PKC-α mRNA levels (PKC-α mRNA): most active in reducing PKC-α mRNA levels

O-Pentyl: 17-mer CCACACCGACGGCGCCC with 2′-O-pentyl nucleotides flanking a 7-base deoxy gap (sugars from the 5' end [OPent]5 d7 [OPent]5, backbone and methylation of C not given here)
Tm (° C.) [2]: 6 °C
IC50 (H-ras): 150 nM

7083 (TCTCGCTGGTGAGTTTC; antisense; sugars from the 5' end [OPr]3 d9 [OPr]5, all phosphorothioate, methylation of C not given here) [Oligonucleotide 7083]
effect on PKC-α mRNA levels (PKC-α mRNA): most active in reducing PKC-α mRNA levels
